These are literature values, as cited in US9750251B2, “Liquid herbicidal preparations” (BAYER INTELLECTUAL PROPERTY GMBH, priority 2008, dated 2017).

≈ marks a conversion by molar mass, not a printed value.

The conditions of the series: at 25° C.

On to `CCOC1Oc2ccc(OS(C)(=O)=O)cc2C1(C)C` (racemic) [ethofumesate], for which the water solubility was 50 µg/mL (≈ 175 µM).
